The values that follow come from US9505750B2, “5-aminocyclylmethyl-oxazolidin-2-one derivatives” (priority 2007, dated 2016).

The structures appear in SMILES notation. ≈ marks a conversion by molar mass, not a printed value.

This assay deals with M. catarrhalis A894. The experiment in a line: MIC determination by microdilution in cation-adjusted Mueller-Hinton Broth (NCCLS). In kind it is cell-based. To be noted: Moraxella catarrhalis, pH 7.2-7.3. How it is done: These assays have been performed following the description given in “Methods for dilution Antimicrobial Susceptibility Tests for Bacteria that Grow Aerobically, 4th ed.; Approved standard: NCCLS Document M7-A4; National Committee for Clinical Laboratory Standards: Villanova, Pa., USA, 1997”. Minimal inhibitory concentrations (MICs; mg/l) were determined in cation-adjusted Mueller-Hinton Broth (BBL) by a microdilution method following NCCLS guidelines (National Committee for Clinical Laboratory Standards. Methods for Dilution Antimicrobial Susceptibility). The pH of the test medium was 7.2-7.3. All Example compounds were tested against several Gram-positive and Gram-negative bacteria.
For orientation: In broth dilution the organism is exposed to a series of concentrations in liquid medium.
`COc1ccc2ncnc(O[C@@H]3CN(C[C@@H]4CN(c5ccc6c(c5)NC(=O)CS6)C(=O)O4)C[C@H]3O)c2c1` (relative stereo) [Example 22, 6-{(R)-5-[(3R*,4R*)-3-hydroxy-4-(6-methoxy-quinazolin-4-yloxy)-pyrrolidin-1-ylmethyl]-2-oxo-oxazolidin-3-yl}-4H-benzo[1,4]thiazin-3-one] came in with an MIC of at most 0.031 µg/mL.

The molecule `COc1ccc2ncnc(O[C@@H]3CN(C[C@@H]4CN(c5ccc6c(c5)NC(=O)CS6)C(=O)O4)C[C@H]3NC(C)=O)c2c1` (relative stereo) [Example 32, N-{(3R*,4R*)-4-(6-methoxy-quinazolin-4-yloxy)-1-[(R)-2-oxo-3-(3-oxo-3,4-dihydro-2H-benzo[1,4]thiazin-6-yl)-oxazolidin-5-ylmethyl]-pyrrolidin-3-yl}-acetamide] registered an MIC of 0.25 µg/mL (≈ 0.443 µM).

As for `COc1ccc2nccc(OC3CN(C[C@@H]4CN(c5ccc6c(c5)NC(=O)CS6)C(=O)O4)C3)c2n1` [Example 1, 6-{(R)-5-[3-(6-methoxy-[1,5]naphthyridin-4-yloxy)-azetidin-1-ylmethyl]-2-oxo-oxazolidin-3-yl}-4H-benzo[1,4]thiazin-3-one], the MIC is at most 0.031 µg/mL.

In turn, `COc1ccc2ncnc(O[C@@H]3CCN(C[C@@H]4CN(c5ccc6c(c5)NC(=O)CS6)C(=O)O4)C3)c2c1` [Example 2, 6-{(R)-5-[(R)-3-(6-methoxy-quinazolin-4-yloxy)-pyrrolidin-1-ylmethyl]-2-oxo-oxazolidin-3-yl}-4H-benzo[1,4]thiazin-3-one] yielded a minimal inhibitory concentration (MIC) of at most 0.031 µg/mL.

Take `COc1ccc2ncnc(O[C@H]3CCN(C[C@@H]4CN(c5ccc6c(c5)NC(=O)CS6)C(=O)O4)C3)c2c1` [Example 3, 6-{(R)-5-[(S)-3-(6-methoxy-quinazolin-4-yloxy)-pyrrolidin-1-ylmethyl]-2-oxo-oxazolidin-3-yl}-4H-benzo[1,4]thiazin-3-one]: the MIC is at most 0.031 µg/mL.

With `COc1ccc2ncnc(O[C@H]3C[C@@H](CO)N(C[C@@H]4CN(c5ccc6c(c5)NC(=O)CS6)C(=O)O4)C3)c2c1` [Example 5, 6-{(R)-5-[(2S,4S)-2-hydroxymethyl-4-(6-methoxy-quinazolin-4-yloxy)-pyrrolidin-1-ylmethyl]-2-oxo-oxazolidin-3-yl}-4H-benzo[1,4]thiazin-3-one], the MIC is at most 0.031 µg/mL.

With `COc1ccc2ncnc(O[C@H]3C[C@@H](CN=[N+]=[N-])N(C[C@@H]4CN(c5ccc6c(c5)NC(=O)CS6)C(=O)O4)C3)c2c1` [Example 6, 6-{(R)-5-[(2S,4S)-2-azidomethyl-4-(6-methoxy-quinazolin-4-yloxy)-pyrrolidin-1-ylmethyl]-2-oxo-oxazolidin-3-yl}-4H-benzo[1,4]thiazin-3-one], the MIC is at most 0.031 µg/mL.

`COc1ccc2nccc(NC(=O)C3CN(C[C@@H]4CN(c5ccc6c(c5)NC(=O)CS6)C(=O)O4)C3)c2n1` [Example 7, 1-[(R)-2-oxo-3-(3-oxo-3,4-dihydro-2H-benzo[1,4]thiazin-6-yl)-oxazolidin-5-ylmethyl]-azetidine-3-carboxylic acid (6-methoxy-[1,5]naphthyridin-4-yl)-amide] registered an MIC of at most 0.031 µg/mL.

`COc1cnc2cccc(C=C3CCN(C[C@@H]4CN(c5ccc6c(c5)NC(=O)CS6)C(=O)O4)CC3)c2n1` [Example 12, 6-{(R)-5-[4-(3-methoxy-quinoxalin-5-ylmethylene)-piperidin-1-ylmethyl]-2-oxo-oxazolidin-3-yl}-4H-benzo[1,4]thiazin-3-one] came in with an MIC of at most 0.031 µg/mL.

In the case of `COc1ccc2nccc(NCC3CN(C[C@@H]4CN(c5ccc6c(c5)NC(=O)CS6)C(=O)O4)C3)c2n1` [Example 14, 6-((R)-5-{3-[(6-methoxy-[1,5]naphthyridin-4-ylamino)-methyl]-azetidin-1-ylmethyl}-2-oxo-oxazolidin-3-yl)-4H-benzo[1,4]thiazin-3-one], the MIC is at most 0.031 µg/mL.

Consider `COc1ccc2ncnc(O[C@H]3C[C@@H](CN)N(C[C@@H]4CN(c5ccc6c(c5)NC(=O)CS6)C(=O)O4)C3)c2c1` [Example 15, 6-{(R)-5-[(2S,4S)-2-aminomethyl-4-(6-methoxy-quinazolin-4-yloxy)-pyrrolidin-1-ylmethyl]-2-oxo-oxazolidin-3-yl}-4H-benzo[1,4]thiazin-3-one], for which the MIC was at most 0.031 µg/mL.

`COc1ccc2ncnc(O[C@H]3C[C@@H](CNC(C)=O)N(C[C@@H]4CN(c5ccc6c(c5)NC(=O)CS6)C(=O)O4)C3)c2c1` [Example 17, N-{(2S,4S)-4-(6-methoxy-quinazolin-4-yloxy)-1-[(R)-2-oxo-3-(3-oxo-3,4-dihydro-2H-benzo[1,4]thiazin-6-yl)-oxazolidin-5-ylmethyl]-pyrrolidin-2-ylmethyl}-acetamide] displayed an MIC of 0.25 µg/mL (≈ 0.432 µM).

`COc1ccc2ncnc(O[C@H]3C[C@@H](Cn4ccnn4)N(C[C@@H]4CN(c5ccc6c(c5)NC(=O)CS6)C(=O)O4)C3)c2c1` [Example 19, 6-{(R)-5-[(2S,4S)-4-(6-methoxy-quinazolin-4-yloxy)-2-[1,2,3]triazol-1-ylmethyl-pyrrolidin-1-ylmethyl]-2-oxo-oxazolidin-3-yl}-4H-benzo[1,4]thiazin-3-one] yielded an MIC of 0.063 µg/mL (≈ 0.107 µM).

`COc1ccc2ncnc(OC3CCN(C[C@@H]4CN(c5ccc6c(c5)NC(=O)CS6)C(=O)O4)CC3)c2c1` [Example 20, 6-{(R)-5-[4-(6-methoxy-quinazolin-4-yloxy)-piperidin-1-ylmethyl]-2-oxo-oxazolidin-3-yl}-4H-benzo[1,4]thiazin-3-one] returned an MIC of at most 0.031 µg/mL.

Regarding `COc1ccc2ncc(F)c(NC3CN(C[C@@H]4CN(c5ccc6c(c5)NC(=O)CO6)C(=O)O4)C3)c2n1` [Example 23, 6-{(R)-5-[3-(3-fluoro-6-methoxy-[1,5]naphthyridin-4-ylamino)-azetidin-1-ylmethyl]-2-oxo-oxazolidin-3-yl}-4H-benzo[1,4]oxazin-3-one], the MIC was at most 0.031 µg/mL.

Molecule `COc1ccc2nccc(NC3CN(C[C@@H]4CN(c5ccc6c(c5)NC(=O)CO6)C(=O)O4)C3)c2n1` [Example 24, 6-{(R)-5-[3-(6-methoxy-[1,5]naphthyridin-4-ylamino)-azetidin-1-ylmethyl]-2-oxo-oxazolidin-3-yl}-4H-benzo[1,4]oxazin-3-one] gave an MIC of at most 0.031 µg/mL.

`COc1ccc2nccc(NC3CN(C[C@@H]4CN(c5ccc6c(c5)NC(=O)CO6)C(=O)O4)C3)c2c1` [Example 25, 6-{(R)-5-[3-(6-methoxy-quinolin-4-ylamino)-azetidin-1-ylmethyl]-2-oxo-oxazolidin-3-yl}-4H-benzo[1,4]oxazin-3-one] yielded an MIC of at most 0.031 µg/mL.

In turn, `COc1ccc2ncc(F)c(CNC3CN(C[C@@H]4CN(c5ccc6c(c5)NC(=O)CO6)C(=O)O4)C3)c2n1` [Example 26, 6-((R)-5-{3-[(3-fluoro-6-methoxy-[1,5]naphthyridin-4-ylmethyl)-amino]-azetidin-1-ylmethyl}-2-oxo-oxazolidin-3-yl)-4H-benzo[1,4]oxazin-3-one] yielded an MIC of at most 0.031 µg/mL.

Turning to `COc1ccc2nccc(CNC3CN(C[C@@H]4CN(c5ccc6c(c5)NC(=O)CO6)C(=O)O4)C3)c2n1` [Example 27, 6-((R)-5-{3-[(6-methoxy-[1,5]naphthyridin-4-ylmethyl)-amino]-azetidin-1-ylmethyl}-2-oxo-oxazolidin-3-yl)-4H-benzo[1,4]oxazin-3-one], the MIC is at most 0.031 µg/mL.

`COc1ccc2ncc(F)c(CNC3CN(C[C@@H]4CN(c5ccc6c(c5)NC(=O)CO6)C(=O)O4)C3)c2c1` [Example 28, 6-((R)-5-{3-[(3-fluoro-6-methoxy-quinolin-4-ylmethyl)-amino]-azetidin-1-ylmethyl}-2-oxo-oxazolidin-3-yl)-4H-benzo[1,4]oxazin-3-one] yielded an MIC of at most 0.031 µg/mL.

On to `COc1ccc2nccc(CNC3CN(C[C@@H]4CN(c5ccc6c(c5)NC(=O)CO6)C(=O)O4)C3)c2c1` [Example 29, 6-((R)-5-{3-[(6-methoxy-quinolin-4-ylmethyl)-amino]-azetidin-1-ylmethyl}-2-oxo-oxazolidin-3-yl)-4H-benzo[1,4]oxazin-3-one], for which the minimum inhibitory concentration (MIC) came out at 0.063 µg/mL (≈ 0.129 µM).

`COc1ccc2ncnc(OCC3CN(C[C@@H]4CN(c5ccc6c(c5)OCCO6)C(=O)O4)C3)c2c1` [Example 30, (R)-3-(2,3-dihydro-benzo[1,4]dioxin-6-yl)-5-[3-(6-methoxy-quinazolin-4-yloxymethyl)-azetidin-1-ylmethyl]-oxazolidin-2-one]: the minimal inhibitory concentration (MIC) stood at 0.063 µg/mL (≈ 0.132 µM).

Molecule `COc1ccc2ncnc(OC3CCN(C[C@@H]4CN(c5ccc6c(c5)NC(=O)CO6)C(=O)O4)CC3)c2c1` [Example 31, 6-{(R)-5-[4-(6-methoxy-quinazolin-4-yloxy)-piperidin-1-ylmethyl]-2-oxo-oxazolidin-3-yl}-4H-benzo[1,4]oxazin-3-one] showed an MIC of at most 0.031 µg/mL.

Take `COc1cnc2cccc(CNC3CN(C[C@@H]4CN(c5ccc6c(c5)NC(=O)CO6)C(=O)O4)C3)c2n1` [Example 34, 6-((R)-5-{3-[(3-methoxy-quinoxalin-5-ylmethyl)-amino]-azetidin-1-ylmethyl}-2-oxo-oxazolidin-3-yl)-4H-benzo[1,4]oxazin-3-one]: the minimal inhibitory concentration (MIC) amounted to 0.063 µg/mL (≈ 0.128 µM).

In turn, `COc1ccc2nccc(NC3CCN(C[C@@H]4CN(c5ccc6c(c5)NC(=O)CO6)C(=O)O4)CC3)c2n1` [Example 35, 6-{(R)-5-[4-(6-methoxy-[1,5]naphthyridin-4-ylamino)-piperidin-1-ylmethyl]-2-oxo-oxazolidin-3-yl}-4H-benzo[1,4]oxazin-3-one] gave an MIC of at most 0.031 µg/mL.

In the case of `COc1ccc2nccc(NC3CN(C[C@@H]4CN(c5ccc6c(c5)NC(=O)CS6)C(=O)O4)C3)c2n1` [Example 36, 6-{(R)-5-[3-(6-methoxy-[1,5]naphthyridin-4-ylamino)-azetidin-1-ylmethyl]-2-oxo-oxazolidin-3-yl}-4H-benzo[1,4]thiazin-3-one], the MIC was at most 0.031 µg/mL.

The molecule `COc1ccc2nccc(NC3CN(C[C@@H]4CN(c5ccc6c(c5)NC(=O)CS6)C(=O)O4)C3)c2c1` [Example 37, 6-{(R)-5-[3-(6-methoxy-quinolin-4-ylamino)-azetidin-1-ylmethyl]-2-oxo-oxazolidin-3-yl}-4H-benzo[1,4]thiazin-3-one] had an MIC of 0.125 µg/mL (≈ 0.254 µM).

One may read the MIC as the lowest concentration found to suppress growth. Low values mean inhibition by little substance, high ones a need for much substance.
